According to patent US6458806B1, “Aryl alkenamides derivatives as MCP-1 antagonists” (Millennium Pharmaceuticals, Inc., priority 1996, dated 2002):
Structures can show the parent of a compound that is named as a salt.

How the values were obtained:
MCP-1 receptor = molecular target: T1, MCP-1 receptor (Homo sapiens, UniProt P41597); test: MCP-1 binding assay (125I-MCP-1, THP-1 cell membranes); details: 0.2 nM 125I-labeled MCP-1, averages of several or two experiments, read-out: Inhibition Of MCP-1 Binding IC50
T1 construct: host or cells: THP-1 cell membranes
T1 sequence (P41597 whole entry): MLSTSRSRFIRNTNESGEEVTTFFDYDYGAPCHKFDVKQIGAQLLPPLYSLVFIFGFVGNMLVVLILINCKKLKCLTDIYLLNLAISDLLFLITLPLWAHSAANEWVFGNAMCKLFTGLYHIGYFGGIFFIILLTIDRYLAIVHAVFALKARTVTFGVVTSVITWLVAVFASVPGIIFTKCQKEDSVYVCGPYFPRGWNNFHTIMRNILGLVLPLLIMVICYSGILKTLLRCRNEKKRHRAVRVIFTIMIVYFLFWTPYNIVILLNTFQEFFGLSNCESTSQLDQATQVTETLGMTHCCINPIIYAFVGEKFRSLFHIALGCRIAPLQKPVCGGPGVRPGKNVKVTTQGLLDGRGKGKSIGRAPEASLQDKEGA
Protocol: Membranes used in the MCP-1 binding assay were prepared from THP-1 cells (human monocytic cell line source—American Type Culture Collection, Tumor Immunology Bank #202, Rockville, Md., accession no. ATCC TIB 202). Cells were harvested by centrifugation and washed twice in ice-cold PBS (phosphate-buffered saline) and the cell pellet was frozen at −80° C. in some cases. Cells were resuspended in ice-cold lysis buffer 5mM HEPES (2-(4N-,[2-hydroxyethyl] piperazin-1-yl)-N′-(2-ethanesulfonic acid), pH 7.5, 2 mM EDTA (ethylenediaminetetraacetic acid), 5 ug/ml each leupeptin, aprotinin, chymostatin (protease inhibitors), and 100 ug/ml PMSF (phenylmethane sulfonyl fluoride—also a protease inhibitor)) at a concentration of 5×10^7 cells/ml. […] Typical binding assays used 10-20 ug/well of total membrane protein as determined with a standard protein assay (e.g. BioRad, Richmond, Calif.).
For binding, 10-20 ug total membrane protein were included in the binding reaction along with 0.2 nM I^125-labeled MCP-1 (Amersham, Arlington Heights, Ill.) with or without unlabeled competitor MCP-1 (Peprotech, Rocky Hill, N.J.) (at 250-500 nM). […] Filters were dried and counted in a Beta-Plate scintillation counter using standard scintillation fluid. […]
IC50s were calculated using a non-linear 3-parameter logistic curve fit. […]

[1] = tested on: T cell recruitment to skin DHR sites; test: Inhibition of T cell recruitment to rat skin inflammatory (DHR) sites; type: in vivo
Protocol: Inhibition of T Cell Recruitment to Rat Skin Inflammatory Sites by Compound 1
Inbred, approximately 200 gm, male Lewis rats were used in all experiments. Cutaneous delayed hypersensitivity (DHR) was induced as previously described (1). Briefly, rats were sensitized to KLH (Sigma Chemical Co., St. Louis, Mo.) by administering 50 μg KLH in 0.1 ml complete Freund's adjuvant (CFA; Sigma Chemical Co.) into each of 4 subcutaneous sites. After 14 days, DHR was elicited by the challenge of 5 μg KLH in PBS into multiple intradermal sites on the back. Analysis was performed 24 hours after antigen challenge. For each experiment, there were at least three groups of animals of at least four animals in each group. […]
T cell recruitment at sites of DHR was quantified using methods previously described (1-4). […] The cells in the effluent were highly purified (>95%) rat T cells as assessed by anti-rat CD3 (monoclonal antibody KT3, Biosource International, Camarillo, Calif.) immunoreactivity by flow cytometry. […] Skin challenge sites (8 mm in diameter) were counted on a γ counter 24 hours after injection of radiolabeled T cells. Lung, liver, and spleen were also collected and counted as comparative indices for evaluation of input.
Statistical significance was determined using a paired Student's t-test. […]

IC50 (MCP-1 receptor): 2.2 µM
SMILES: O=C(/C=C/C=C/c1ccc(Cl)c(Cl)c1)NCCCN1CCCCC1 [Example 1, 5-(3,4-Dichloro-phenyl)-penta-2,4-dienoic Acid (3-piperidin-1-yl-propyl)-amide-HCl]
inhibition of T cell recruitment in rat DHR (result in words) ([1]; 30 mg/kg per os at time of antigen challenge, 24 hour period, FIG. 2): statisticallly significant inhibitory effect | inhibition of recruitment of 111In-labeled rat T cells to skin DHR sites ([1]; Lewis rats, 30 mg/kg once per os at time of antigen (KLH) challenge, 24 hours, P<0.05, dose-dependent): approximately 80%
